Patent US8481521B2, “Methods of treating cell proliferative disorders” (Rigel Pharmaceuticals, Inc., priority 2005, dated 2013)
In brackets after ≈: the same amount, converted by molar mass. Where two headings read alike, the source gives them in different places.

How the values were obtained:
[1] = test system: MV4-11 human acute myeloid leukemia cells; test: Subcutaneous MV4-11 tumor growth (initial studies); type: in vivo, mice
Excerpt: The Flt-3 ITD mutation has been associated with poor prognosis and reduced remission rates in affected AML patients, making it an attractive target for therapeutic intervention. Studies have shown that mutant Flt-3 ITD receptors dimerize in a Flt-3 ligand-independent manner and auto-phosphorylation of the receptor results in constitutive activation, increased proliferation, and growth factor independence of the mutant cell.

[2] = Pharmacokinetics in NOD-SCID mice after PO VII calcium salt (plasma VI); type: in vivo; set-up: T-max (Compound VI in plasma): unit not given here
Experimental: Initial PK data in NOD-SCID mice was generated in an intial study prior to dosing in this study.
Due to precipitates observed in on-study formulations prepared in the initial study and other studies, additional PK data was obtained using remaining dosing solutions after study termination. NOD-SCID female mice (n=4) were dosed with 40 mg/kg dose solution of VII and plasma obtained at 1 hour post dose.
Table 5A and 5B: PO administration of VII Calcium Salt: Mean Concentration of Compound VI in Plasma (ng/mL).

[3] = Solubility of drug and phosphate prodrug; type: physicochemical
Excerpt: In contrast, Compound 4 is highly polar at neutral pH. Measured solubility values are consistent with the predicted cLogD values at pH=7.5.

[4] = GLP mutagenicity and clastogenicity studies (Ames, chromosomal aberration, mouse micronucleus)
Experimental: (§1) GLP toxicology studies included negative mutagenicity and clastogenicity studies (Ames, chromosomal aberration, and mouse micronucleus). […] The No Observed Adverse Effect Level (NOAEL) is 10-30 mg/kg/day for rats and 100 mg/kg/day for monkeys.

[5] = test system: tumorigenic SLP-65−/− pre-B cell lines; test: Proliferation (DNA content) of tumorigenic SLP-65-/- pre-B cell lines; type: cell-based; conditions: 36 hours, 2 μM
[6] = in vivo
Experimental: as §1

[7] = test system: TEL-Syk-transformed cells; test: Proliferation (DNA content) and differentiation of TEL-Syk-transformed pre-B cells; type: cell-based
Experimental: Cells were cultured for 3 days in the absence of IL-7 and analyzed for the expression of kappa LC by FACS. Experiments showing the inhibition of proliferation of Syk-transformed cells by a Syk inhibitory compound are described in […]., Abe, A., and Jumaa, H., “The protein tyrosine kinase Syk is involved in malignant transformation and leukemia development,” (manuscript in preparation). The experiments described in the manuscript are briefly summarized below. Aberrant Syk variants resulting from chromosomal translocation Tel-Syk were tested for its ability to transform pre-B cells by retrovirally transducing freshly isolated bone marrow pre-B cells with IRES-GFP vectors expressing Tel-Syk. […] Transformation of the pre B cells by Tel-Syk activity was confirmed by injecting the TEL-SYK transduced cells into RAG/γC-/- mice, which led to animals presenting symptoms of myelodysplastic disease. […] To test whether inhibition of Syk activity in the cells transformed with Tel-Syk block cell proliferation, the effect of Syk kinase inhibitor 2,4-pyrimidinediamine compound IV was tested in vitro by examining the DNA content of treated cells.

[8] = test system: AML cells harboring Flt-3 ITD; test: Apoptosis of AML cells (Annexin V and PI staining); type: cell-based; conditions: 1 uM, 48 h
Experimental: (§2) AML cells or 32D transfectants were treated for 48 h (AML) or 24 h (32D) with 1 uM VI, and the increase in % of apoptotic cells was determined using Annexin V and PI staining.

[9] = test system: 32D transfected with ITD or point mutated Flt-3; test: Apoptosis of 32D transfectants (Annexin V and PI staining); type: cell-based; conditions: 1 uM, 24 h
Experimental: as §2

[10] = test system: Myc-transformed pre-B cells; test: Proliferation (DNA content) of Myc-transformed pre-B cells; type: cell-based; conditions: 36 hours, 2 μM
Excerpt: FIG. 2A is a FACS profile of pre-B cells that were transduced with Myc expression vectors and cultured in the absence of IL-7 for 1 week.
To determine the effect of Syk inhibitor on proliferation of leukemic cells, several tumorigenic pre-B cell lines that induce leukemia after injection into mice were used. Because tumorigenic cells need the pre-B cell receptor (pre-BCR) for proliferation, and Syk is a critical protein for pre-BCR signaling cascade, it is expected that Syk inhibitors will inhibit proliferation of these tumorigenic pre-B cells. […] Cells were injected into […] mice to examine their ability to proliferate in vivo.

Compound: N4-(2,2-dimethyl-4-[(dihydrogen phosphonoxy)methyl]-3-oxo-5-pyrido[1,4]oxazin-6-yl)-5-fluoro-N2-(3,4,5-trimethoxyphenyl)-2,4-pyrimidinediamine mono calcium salt [Compound 6]
- subcutaneous tumor growth [1]: reduced subcutaneous tumor growth
- AUCinf (Compound VI in plasma) ([2]; PO 20 mg/kg, Female): 5.362 µg·h/mL
- AUClast (Compound VI in plasma) ([2]; PO 20 mg/kg, Female): 5.351 µg·h/mL
- C-max (Compound VI in plasma) ([2]; PO 20 mg/kg, Female): 3717 ng/mL
- T1/2 (Compound VI in plasma) ([2]; PO 20 mg/kg, Female): 35.4 min
- T-max (Compound VI in plasma) ([2]; PO 20 mg/kg, Female): 0.25
- Mean Concentration of Compound VI in Plasma ([2]; PO 20 mg/kg, Female, 0.25 hrs): 3.717 µg/mL
- Mean Concentration of Compound VI in Plasma ([2]; PO 20 mg/kg, Female, 0.5 hrs): 2.24 µg/mL
- Mean Concentration of Compound VI in Plasma ([2]; PO 20 mg/kg, Female, 1 hrs): 1.737 µg/mL
- Mean Concentration of Compound VI in Plasma ([2]; PO 20 mg/kg, Female, 2 hrs): 1.438 µg/mL
- Mean Concentration of Compound VI in Plasma ([2]; PO 20 mg/kg, Female, 4 hrs): 0.055 µg/mL
- Mean Concentration of Compound VI in Plasma ([2]; PO 20 mg/kg, Female, 6 hrs): 0.013 µg/mL
- AUCinf (Compound VI in plasma) ([2]; PO 20 mg/kg, Male): 11.434 µg·h/mL
- AUClast (Compound VI in plasma) ([2]; PO 20 mg/kg, Male): 10.261 µg·h/mL
- C-max (Compound VI in plasma) ([2]; PO 20 mg/kg, Male): 3377 ng/mL
- T1/2 (Compound VI in plasma) ([2]; PO 20 mg/kg, Male): 107 min
- T-max (Compound VI in plasma) ([2]; PO 20 mg/kg, Male): 0.50
- Mean Concentration of Compound VI in Plasma ([2]; PO 20 mg/kg, Male, 0.25 hrs): 1.872 µg/mL
- Mean Concentration of Compound VI in Plasma ([2]; PO 20 mg/kg, Male, 0.5 hrs): 3.377 µg/mL
- Mean Concentration of Compound VI in Plasma ([2]; PO 20 mg/kg, Male, 1 hrs): 3.28 µg/mL
- Mean Concentration of Compound VI in Plasma ([2]; PO 20 mg/kg, Male, 2 hrs): 2.13 µg/mL
- Mean Concentration of Compound VI in Plasma ([2]; PO 20 mg/kg, Male, 4 hrs): 1.209 µg/mL
- Mean Concentration of Compound VI in Plasma ([2]; PO 20 mg/kg, Male, 6 hrs): 0.454 µg/mL
- AUCinf (Compound VI in plasma) ([2]; PO 40 mg/kg, Female): 11.625 µg·h/mL
- AUClast (Compound VI in plasma) ([2]; PO 40 mg/kg, Female): 11.498 µg·h/mL
- C-max (Compound VI in plasma) ([2]; PO 40 mg/kg, Female): 5497 ng/mL
- T1/2 (Compound VI in plasma) ([2]; PO 40 mg/kg, Female): 50.4 min
- T-max (Compound VI in plasma) ([2]; PO 40 mg/kg, Female): 1.00
- Mean Concentration of Compound VI in Plasma ([2]; PO 40 mg/kg, Female, 0.25 hrs): 5.14 µg/mL
- Mean Concentration of Compound VI in Plasma ([2]; PO 40 mg/kg, Female, 0.5 hrs): 3.597 µg/mL
- Mean Concentration of Compound VI in Plasma ([2]; PO 40 mg/kg, Female, 1 hrs): 5.497 µg/mL
- Mean Concentration of Compound VI in Plasma ([2]; PO 40 mg/kg, Female, 2 hrs): 2.823 µg/mL
- Mean Concentration of Compound VI in Plasma ([2]; PO 40 mg/kg, Female, 4 hrs): 0.201 µg/mL
- Mean Concentration of Compound VI in Plasma ([2]; PO 40 mg/kg, Female, 6 hrs): 0.105 µg/mL
- AUCinf (Compound VI in plasma) ([2]; PO 40 mg/kg, Male): 27.17 µg·h/mL
- AUClast (Compound VI in plasma) ([2]; PO 40 mg/kg, Male): 20.831 µg·h/mL
- C-max (Compound VI in plasma) ([2]; PO 40 mg/kg, Male): 6370 ng/mL
- T1/2 (Compound VI in plasma) ([2]; PO 40 mg/kg, Male): 138 min
- T-max (Compound VI in plasma) ([2]; PO 40 mg/kg, Male): 2.00
- Mean Concentration of Compound VI in Plasma ([2]; PO 40 mg/kg, Male, 0.25 hrs): 3.587 µg/mL
- Mean Concentration of Compound VI in Plasma ([2]; PO 40 mg/kg, Male, 0.5 hrs): 2.86 µg/mL
- Mean Concentration of Compound VI in Plasma ([2]; PO 40 mg/kg, Male, 1 hrs): 5.25 µg/mL
- Mean Concentration of Compound VI in Plasma ([2]; PO 40 mg/kg, Male, 2 hrs): 6.37 µg/mL
- Mean Concentration of Compound VI in Plasma ([2]; PO 40 mg/kg, Male, 4 hrs): 1.73 µg/mL
- Mean Concentration of Compound VI in Plasma ([2]; PO 40 mg/kg, Male, 6 hrs): 1.909 µg/mL
- AUCinf (Compound VI in plasma) ([2]; PO 80 mg/kg, Female): 27.662 µg·h/mL
- AUClast (Compound VI in plasma) ([2]; PO 80 mg/kg, Female): 27.013 µg·h/mL
- C-max (Compound VI in plasma) ([2]; PO 80 mg/kg, Female): 8193 ng/mL
- T1/2 (Compound VI in plasma) ([2]; PO 80 mg/kg, Female): 58.2 min
- T-max (Compound VI in plasma) ([2]; PO 80 mg/kg, Female): 2.00
- Mean Concentration of Compound VI in Plasma ([2]; PO 80 mg/kg, Female, 0.25 hrs): 3.847 µg/mL
- Mean Concentration of Compound VI in Plasma ([2]; PO 80 mg/kg, Female, 0.5 hrs): 7.433 µg/mL
- Mean Concentration of Compound VI in Plasma ([2]; PO 80 mg/kg, Female, 1 hrs): 7.267 µg/mL
- Mean Concentration of Compound VI in Plasma ([2]; PO 80 mg/kg, Female, 2 hrs): 8.193 µg/mL
- Mean Concentration of Compound VI in Plasma ([2]; PO 80 mg/kg, Female, 4 hrs): 2.529 µg/mL
- Mean Concentration of Compound VI in Plasma ([2]; PO 80 mg/kg, Female, 6 hrs): 0.465 µg/mL

Compound: COc1cc(Nc2ncc(F)c(Nc3ccc4c(n3)NC(=O)C(C)(C)O4)n2)cc(OC)c1OC [Compound III, N4-(2,2-dimethyl-3-oxo-4H-5-pyrido[1,4]oxazin-6-yl)-5-fluoro-N2-(3,4,5-trimethoxyphenyl)-2,4-pyrimidinediamine]
- solubility ([3]; aqueous buffer, phosphate buffer at pH=7.5, read-out: measured solubility): < 1 µg/mL
- solubility ([3]; water solubility, read-out: Solubility): 1 to 2 µg/mL (≈ 2.13 to 4.25 µM)
- mutagenicity and clastogenicity (Ames, chromosomal aberration, mouse micronucleus) [4]: negative
- proliferation of tumorigenic SLP-65−/− pre-B cell lines [5]: block the proliferation
- 28-day toxicity: hematology, bone marrow cellularity ([6]; monkey): reversible effect
- 28-day toxicity: hematology, liver transaminase, spleen and thymus size, bone marrow cellularity ([6]; rat): reversible effect
- differentiation of TEL-Syk-transformed pre-B cells (kappa light chain expression) [7]: induce differentiation
- proliferation of TEL-Syk-transformed pre-B cells ([7]; DNA content, 36 hours, 2 μM): block proliferation
- induced apoptosis of AML cells harboring Flt-3 ITD [8]: uniquely sensitive
- plasma levels of VI by 6 hours post-dose ([2]; female mice, 20, 40 or 80 mg/kg doses of VII): virtually undetectable
- apoptosis of 32D transfected with ITD or point mutated Flt-3 vs wt Flt-3 [9]: undergo more apoptosis
- proliferation of Myc-transformed pre-B cells [10]: block the proliferation
